Assay results taken from patent publication US20100093076A1, “SOLUBLE IL-27 RECEPTOR” (priority 2006, published 2010).

Tests used:
[1] = target: T1, human ligand (single-chain IL27: EBI3 linked to IL-27 p28) (Homo sapiens, UniProt Q14213+Q8NEV9); test: Surface plasmon resonance (BIACORE 3000) kinetic rate and affinity constants; assay type: binding; details: SPR
T1 construct: purchased R&D Systems
T1 sequence (Q14213+Q8NEV9 with tags, fused parts or gaps): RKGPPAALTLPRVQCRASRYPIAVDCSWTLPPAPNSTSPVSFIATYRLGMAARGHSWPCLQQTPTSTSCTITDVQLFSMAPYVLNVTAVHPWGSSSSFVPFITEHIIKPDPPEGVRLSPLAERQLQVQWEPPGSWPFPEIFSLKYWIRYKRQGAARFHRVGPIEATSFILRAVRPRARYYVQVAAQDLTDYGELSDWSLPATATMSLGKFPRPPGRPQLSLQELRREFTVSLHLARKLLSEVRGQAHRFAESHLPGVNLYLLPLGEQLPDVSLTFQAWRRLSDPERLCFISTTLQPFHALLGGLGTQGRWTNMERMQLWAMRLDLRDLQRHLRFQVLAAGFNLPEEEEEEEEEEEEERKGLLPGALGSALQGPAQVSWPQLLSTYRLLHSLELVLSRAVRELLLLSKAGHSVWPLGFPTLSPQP
Procedure: (§1) Kinetic rate and affinity constant values for the mouse (IL27RAm(mFc1), Example 1) and human (IL27RA-Fc5, Example 2) soluble receptors were obtained by surface plasmon resonance (SPR) using an automated instrument (BIACORE 3000; Biacore International AB, Uppsala, Sweden). The mouse soluble receptor was tested against mouse ligand (lot A1418F), and the human soluble receptor was tested against both mouse (A1426F) and human (A1534F) ligands. For determination of the kinetic rate constants for the receptor-ligand interactions, the gp130 molecule was not included as part of the receptor complex.
(§2) The IL27 ligands used in this study were single-chain molecules comprising EBI3 connected by its C-terminus to the N-terminus of IL-27 p28 via a polypeptide linker. (R&D Systems) Each of the ligands included an amino-terminal peptide tag.
(§3) For the mouse IL27RA study, the soluble receptor was captured onto the chip surface by an isotype-specific anti-mouse Fc antibody (obtained from Jackson ImmunoResearch Laboratories, Inc., West Grove, Pa.) covalently immobilized to the chip (BIACORE CM5 chip) using the standard amine coupling protocol specified by the instrument manufacturer. For the human IL27RA studies, the soluble receptor was directly and covalently immobilized to the chip via the amine coupling protocol. In all studies, ligand was injected over the active (receptor-bound) surface at varying concentrations to obtain a series of binding curves.
(§4) Experimental conditions were optimized for determination of kinetic rate constant values. The molecular densities of the soluble receptor protein loaded onto the chip surface were targeted to obtain maximum IL27 binding levels (Rmax) of ≦20 RU. The analyte (ligand) was injected over the receptor surface at a flow rate of […] at a concentration range of approximately 0.05 to 10 nM, allowing for an association phase of 3 minutes and a dissociation phase of 10 minutes. The mouse soluble receptor surface was regenerated with two 30-second injections at 50 μL/minute of glycine, pH 2.0. The human soluble receptor surface was similarly regenerated with a single 30-second injection.
(§5) All data were assessed using software provided with the instrument (BIACORE Evaluation software v. 3.2). The binding curves were globally fitted to a 1:1 binding model corrected for mass transport limitation resulting from the fast on-rate values (ka) obtained. Statistical analysis of the fits of the experimental binding curves versus theoretical curves gave standard error values for ka and kd of less than 2%, and chi^2 values of less than 2% of Rmax for all interactions tested, providing reasonable confidence in the kinetic rate constant values obtained.

[2] = target: T2, mouse ligand (single-chain IL27: EBI3 linked to IL-27 p28) (Mus musculus, UniProt O35228+Q8K3I6); test: as above; assay type: binding; details: SPR
T2 construct: purchased R&D Systems
T2 sequence (O35228+Q8K3I6 with tags, fused parts or gaps): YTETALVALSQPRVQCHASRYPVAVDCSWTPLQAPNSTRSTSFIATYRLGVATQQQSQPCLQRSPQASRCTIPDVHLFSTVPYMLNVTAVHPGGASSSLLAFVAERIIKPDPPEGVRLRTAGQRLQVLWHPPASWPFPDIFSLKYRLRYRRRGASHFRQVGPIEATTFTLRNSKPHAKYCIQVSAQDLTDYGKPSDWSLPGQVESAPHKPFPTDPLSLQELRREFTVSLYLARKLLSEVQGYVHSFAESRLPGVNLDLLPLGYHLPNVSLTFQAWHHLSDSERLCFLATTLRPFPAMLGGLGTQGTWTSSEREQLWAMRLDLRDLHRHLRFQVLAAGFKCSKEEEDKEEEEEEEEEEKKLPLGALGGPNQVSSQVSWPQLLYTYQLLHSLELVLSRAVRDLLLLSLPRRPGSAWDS
Procedure: as §1, §2, §3, §4, §5

[3] = tested on: acute graft-vs-host disease; test: Mouse model of acute graft-vs-host disease; assay type: in vivo; details: acute GVHD
Procedure: Efficacy of IL-27 antagonists was assayed in a mouse model of acute graft-vs-host disease (Durie et al., J. Clin. Invest. 94:1333-1338, 1994). Parental mice (C57BL/6; n=12) were euthanized, and their spleens were collected. The pooled spleens were smashed using two glass slides to dissociate splenic cells. Lysis buffer was added to the splenocyte suspension to remove red blood cells. The cells were washed in RPMI 1640 (10% FBS) medium and resuspended in an appropriate amount of PBS to make a cell concentration of 300 million cells/ml. Protein treatments were administered by intraperitoneal injection every other day beginning on day-1 and continuing until day 15. Dexamethasone (DEX) was administered by injection daily on days 0 through 6. On day 0, 75 million donor splenic lymphocytes from B6 mice (250.micro.1 per injection) were injected intravenously into recipient mice (C57BL/6×DBA/2 F1 (BDF1); n=10 per group) mice. Mice were monitored 3 times a week for changes in body weight and any signs of moribundity. Mice that lost >20% of their initial body weight were euthanized. Otherwise, mice were sacrificed 18 days after the cell transfer. Spleens were collected, and a CTL-specific lysis assay using P815 cells was performed as a quantitative measurement of acute GVHD. Furthermore, spleens were stained for T- and B-cell markers, including MHC class I markers (H2^b and H2^d) to look at donor/recipient cell ratio (acute GVHD spleen cells are mostly donor cells). Sera were collected to measure serum level of IgG1, IgG2a, and IgE by ELISA, and cytokine and chemokine levels using a commercially available kit (Luminex Corporation, Austin, Tex.).

human IL-27RA-Fc5: Extracellular domain of human IL27RA (amino acids 1 to 512 of SEQ ID NO:3) fused to Fc5, effector minus human gamma1 Fc; SEQ ID NO:16
ka ([1]; 1:1 binding model): 1e+07 M⁻¹ s⁻¹ | kd ([1]; 1:1 binding model): 0.0019 s⁻¹ | Kd ([1]; Kd=kd/ka): 0.19 nM | ka ([2]; 1:1 binding model): 8.1e+06 M⁻¹ s⁻¹ | kd ([2]; 1:1 binding model): 0.0018 s⁻¹ | Kd ([2]; Kd=kd/ka): 0.22 nM | colon length shortening [3]: did prevent colon length shortening | splenomegaly [3]: did not prevent splenomegaly | host spleen cells, CD4+T cells, and Treg cells ([3]; BDF1 recipients, day 18): maintained host spleen cells, CD4+T cells, and Treg cells | Body weight loss ([3]; versus PBS control group): not severe and was significantly less than in the PBS control group | IL-2 level ([3]; serum, arrows, key not given): ↑↑↑ | IL-5 level ([3]; serum, arrows, key not given): ↑↑ | IL-6 level ([3]; serum, arrows, key not given): ↓↓↓ | IgE level ([3]; serum, arrows, key not given): ↑ | IgG1 level ([3]; serum, arrows, key not given): ↑↑ | IgG2A level ([3]; serum, arrows, key not given): ↑↑
